From US20250188085A1, “COMPOSITIONS AND METHODS FOR INHIBITION OF RAS” (THERAS, INC., priority 2022, published 2025)
pIC50: −log10 of the molar value. Read-outs that look alike come from different tables or passages of the source.

Key:
[1] = biological target: T1, GppNHp-loaded KRAS4b (amino acids 1-169) G12C/C118S protein (Homo sapiens, UniProt P01116, C118S/G12C); experiment: Covalent cysteine 12 modification by MALDI-TOF MS, GppNHp-loaded KRAS G12C; type: binding; conditions: 15 minutes reaction time point
T1 construct: KRAS4b (amino acids 1-169) G12C/C118S protein; made in house
Experimental: (§1) Reaction: 1 μM of GppNHp-, GTP-, or GDP-loaded KRAS4b (amino acids 1-169) G12C/C118S protein (produced in-house by Protein Expression Laboratory, FNLCR/Leidos Biomed) in 20 mM 4-(2-hydroxyethyl)-1-piperazineethanesulfonic acid (HEPES) buffer containing 150 mM NaCl, 1 mM MgCl2, pH 7.3 was prepared freshly before assay. Ten-μL aliquots of protein were dispensed onto low volume 384-well plate, then 375 nL DMSO, and 25 nL of tested compounds from 5 mM DMSO stocks were added to appropriate wells using ECHO 555 acoustic liquid handler (Labcyte Inc.). For each reaction/assay, three blanks were prepared by mixing 10 μL of protein solution with 400 nL DMSO. The contents of the wells were carefully mixed by aspiration, and then each plate was sealed with an adhesive cover, centrifuged at 2000 g for 1 minute, and kept in the dark at room temperature until 5 min, 15 min, 30 min, or 2 h collections.
(§2) Target pretreatment: Before each assay MALDI target (Bruker MPT 384 ground steel BC) was pre-treated by pipetting on each spot 0.75 μL of saturated sinapinic acid in acetonitrile (ACN).
(§3) Sample preparation: At collection time point, 2 μL of reaction mixtures were pipetted out into 20 μL MALDI matrix solution (saturated solution of sinapinic acid in 1:1 ACN:water solution containing 0.75% trifluoroacetic acid (TFA)) deposited on 384 well polypropylene plate. Resulting solution was mixed by aspiration, centrifuged at 2000 g for 1 minute, then 1 μL aliquots were dispensed on pre-treated MALDI target using Beckman Coulter Biomek FXP 96/384-Span-8 Laboratory Automation Workstation. Finally, the MALDI target was dried under mild vacuum to produce spots with fine crystalline structure.
(§4) Measurements: MALDI-TOF measurements were performed on a Bruker Daltonics rapiflex Tissuetyper TOF-TOF mass spectrometer using linear mode and mass range from 18.6 to 21.6 kDa. Detector gain was set to 3.3× (483 V), sample rate to 5 GS/s, real time smoothing to medium (175 MHz), laser smart beam pattern was set to: “MS Thin Layer M5”, and the laser frequency was 10000 Hz. Spectra were automatically collected using custom Auto Xecute method. Laser power was auto adjusted using fuzzy control. The peak selection range was set to be between 19000 and 21500 Da. Peak evaluation uses half width parameter set to be smaller than 40 Da for processed spectrograms (centroid peak detection; smoothed by SavitzkyGolay algorithm using 7 m/z width and 2 cycles; baseline was subtracted using median algorithm with flatness 1 and median level 0.01). Fuzzy control used Proteins/Oligonucleotides protocol with minimum half width 1/10 times above threshold. Up to 40000 satisfactory shots were collected in 10000 shot steps. Dynamic termination was implemented to finish data collection when peak signal/noise ratio was reaching value of 50.
(§5) Spectra processing: Spectra were smoothed by SavitzkyGolay algorithm using 7 m/z width and three cycles. Centroid peak detection algorithm was used with signal to noise threshold set to 6, relative intensity threshold 4%, peak width 10 m/z and median baseline subtraction using flatness of 1 and median level of 0.01. Peak intensity and area under the peak were evaluated and recorded for all peaks between 19,300 Da and 21,550 Da.
(§6) Calculation of percent modification: Percent modification was calculated as a ratio of peak height for protein modified by compound to sum of peak height of remaining protein plus peak height for protein modified by compound. If multiple modifications were observed each was calculated as a ratio of peak height for given modification versus sum of peak heights for all observed protein species. Data reported in Table 5 are from 15 minutes reaction time point.

[2] = test system: pERK in NCI-H358 cells; experiment: Cell-based pERK HTRF assay; conditions: 30 min incubation, read-out: pERK in NCI-H358 cell inhibition IC50
Experimental: pERK assays (Perkin Elmer) were used to determine the effectiveness of compounds of the present disclosure in disrupting KRAS G12C protein/effector signaling in cells.
On Day 1, cells (NCI-H358) were seeded into 96-well plates at 4×10^4 cells/well in complete growth media (RPMI, 10% FBS).
On Day 2, cells were treated with compounds at 0.25% DMSO. The source plate was created with compounds diluted in media at 5-fold the final assay concentration. The compounds were run in a 9-point concentration curve starting at 75 μM, with a 3-fold dilution between concentrations. 20 μL was transferred onto the cell plates (final volume in wells was 100 μL). Plates were harvested after 30 min incubation by aspirating media and adding kit-supplied 1× supplemented lysis buffer to all wells (75 μl per well). Plates were then placed on a plate shaker and incubated at 850 rpm for an additional 30 min.
Antibody mixture solution was prepared by diluting aliquoted d2 and Eu Cryptate antibodies 1:20 in kit supplied detection buffer, then mixed the diluted antibodies solutions (1:1 v:v). 4 μL of this solution was then added to a 384-well detection plate (Perkin Elmer; 6008230).
Samples were homogenized by pipetting up and down and then transferred (16 μL of cell lysates) from the 96-well cell culture plate to two wells of the HTRF 384-well detection plate containing the antibody solution. Plates were centrifuged (524 g for Imin) and allowed to incubate between 4 and 24 h at room temperature. Maximum signal is reached after 4 h incubation time and remains stable over a period of 24 hours. Therefore, readings can be made between 4 and 24 h of incubation. Plates were centrifuged again (524 g for Imin) and analyzed on the En Vision plate reader using the following settings: Excitation 320 nm, Bandwidth 75 nm; Emission 615 nm, Bandwidth 85 nm; Gain 100%; Flashes 100; Lag 60 μs.

[3] = biological target: T2, Avi-KRAS G12C (1-169) GppNHp/RAF1 RBD-3×FLAG (52-151) (Homo sapiens, UniProt P01116, G12C); experiment: Raf1 RBD-KRAS G12C-GppNHp disruption (protein:protein interaction HTRF assay); type: biochemical
T2 construct: Avi-KRAS G12C (1-169) GppNHp/RAF1 RBD-3×FLAG (52-151)
Experimental: A protein: protein (PPI) interaction Homogeneous Time Resolved Fluorescence (HTRF) assay was used to determine the effectiveness of compounds of the present disclosure in disrupting KRAS G12C protein and effector (RAF1 or PIK3CA) binding.
The HTRF assay used the following reagents and proteins: 50 nM Avi-KRAS G12C Q25A (1-169) GppNHp/3×FLAG-PI3K CA (157-299); 50 nM Avi-KRAS G12C (1-169) GppNHp/RAF1 RBD-3×FLAG (52-151); 35 nM Avi-PI3K RBD-3×FLAG; Assay Buffer: 50 mM Tris pH 7.5, 100 mM NaCl, 5 mM MgCl2, 0.1% BSA, 0.01% Tween 20, 10% DMSO; Bead Buffer: 50 mM Tris pH 7.5, 0.01% Tween 20; Assay volume: 20 μL (384 well plate-low volume format); and Compound titration: 30-0.02 μM, 3× dilution series.
The HTRF assay employed the following protocol:
Compounds were dispensed in assay plate (384-well, Grenier Bione #784075) using Echo (model 555) with dose response settings: 200 nL final volume, titration from 100 μM as a 10-point dilution series. KRAS proteins were prepared in assay buffer, and dispensed on plates, 5 μL per well, then incubated for 1 h at room temperature, with 700 rpm shaking. RAF1 RBD and PI3K RBD CA were prepared in assay buffer, dispensed onto plates, 5 μL per well, and then incubated for 1 h at room temperature, with 700 rpm shaking. Reagent mix was then prepared and dispensed on plates, 10 μL per well, and then incubated for 1 h at room temperature, with 700 rpm shaking.
Plates were analyzed on an Envision plate reader using the following setting: Excitation 320 nm, Bandwidth 75 nm; Emission 615 nm, Bandwidth 85 nm; Gain 100%; Flashes 100; Lag 60 μs. Data was reported as percentage of activity, with DMSO as 100%. Data was plotted and analyzed using Prism 8.

[4] = biological target: T3, GDP-loaded KRAS4b (amino acids 1-169) G12C/C118S protein (Homo sapiens, UniProt P01116, C118S/G12C); experiment: Covalent cysteine 12 modification by MALDI-TOF MS, GDP-loaded KRAS G12C; type: binding; conditions: 15 minutes reaction time point
T3 construct: KRAS4b (amino acids 1-169) G12C/C118S protein; made in house
Experimental: as §1, §2, §3, §4, §5, §6

| Compound | GppNHp-KRAS G12C percent of modification [1] | pIC50 ([2]; Homo sapiens, NCI-H358, 0.5 h) | pIC50 [3] | GDP-KRAS G12C percent of modification [4] | pIC50 [2] |
| --- | --- | --- | --- | --- | --- |
| C=CC(=O)N1CCC[C@@H](Oc2nc(OC[C@@H]3C[C@@H](F)CN3C)nc3c(F)c(-c4ccc(F)c5sc(N)nc45)c(C(F)(F)F)cc23)C1 (atropisomer, axis not shown) [Compound 20] | D (percent of modification <10%) | < 6.00 | 4.70 to 5.30 | B (50≤percent of modification <70%) |  |
| C=CC(=O)N1CCC[C@@H](Oc2nc(OC[C@@H]3C[C@@H](F)CN3C)nc3c(F)c(-c4ccc(F)c5sc(N)nc45)c(C(F)(F)F)cc23)C1 (atropisomer, axis not shown) [Compound 21] | D (percent of modification <10%) |  | < 4.70 | D (percent of modification <10%) | < 6.00 |
| C=CC(=O)N1CC[C@@H](Oc2nc(OC[C@@H]3CC4(CC4)CN3C)nc3c(F)c(-c4ccc(F)c5sc(N)nc45)c(C(F)(F)F)cc23)C1 (atropisomer, axis not shown) [Compound 24] | B (50≤percent of modification <70%) |  | ≥ 6.30 | A (percent of modification ≥70%) | ≥ 7.00 |
| C=CC(=O)N1CC[C@@H](Oc2nc(OC[C@@H]3CC4(CC4)CN3C)nc3c(F)c(-c4ccc(F)c5sc(N)nc45)c(C(F)(F)F)cc23)C1 (atropisomer, axis not shown) [Compound 25] | D (percent of modification <10%) |  | 4.70 to 5.30 | D (percent of modification <10%) | < 6.00 |
| C=CC(=O)N1C[C@@H](C)[C@@H](Oc2nc(OC[C@@]34CCCN3C[C@H](F)C4)nc3c(F)c(-c4ccc(F)c5sc(N)nc45)c(C(F)(F)F)cc23)C1 (atropisomer, axis not shown) [Compound 27] | C (10%≤modification <50%) | ≥ 7.00 | ≥ 6.30 | A (percent of modification ≥70%) |  |
| C=CC(=O)N1C[C@H](Oc2nc(OC[C@@]34CCCN3C[C@H](F)C4)nc3c(F)c(-c4ccc(F)c5sc(N)nc45)c(C(F)(F)F)cc23)C[C@@H]1C (atropisomer, axis not shown) [Compound 32] | C (10%≤modification <50%) |  | ≥ 6.30 | A (percent of modification ≥70%) | ≥ 7.00 |
| C=CC(=O)N1C[C@H](Oc2nc(OC[C@@]34CCCN3C[C@H](F)C4)nc3c(F)c(-c4ccc(F)c5sc(N)nc45)c(C(F)(F)F)cc23)C[C@@H]1C (atropisomer, axis not shown) [Compound 33] | D (percent of modification <10%) |  | 4.70 to 5.30 | D (percent of modification <10%) | < 6.00 |
| C=CC(=O)N1C[C@H](Oc2nc(OC[C@@]34CCCN3C[C@H](F)C4)nc3c(F)c(-c4ccc(F)c5sc(N)nc45)c(C(F)(F)F)cc23)C[C@H]1C (atropisomer, axis not shown) [Compound 37] | A (percent of modification ≥70%) | ≥ 7.00 | ≥ 6.30 | A (percent of modification ≥70%) |  |
| C=CC(=O)N1C[C@H](Oc2nc(OC[C@@]34CCCN3C[C@H](F)C4)nc3c(F)c(-c4ccc(F)c5sc(N)nc45)c(C(F)(F)F)cc23)C[C@H]1C (atropisomer, axis not shown) [Compound 38] | D (percent of modification <10%) |  | 5.30 to 6.30 | D (percent of modification <10%) | 6.00 to 7.00 |
| C=CC(=O)N1C[C@@H](C)[C@@H](Oc2nc(OC[C@@]34CCCN3C[C@H](F)C4)nc3c(F)c(-c4ccc(F)c5sc(N)nc45)c(C(F)(F)F)cc23)C1 (atropisomer, axis not shown) [Compound 39] | C (10%≤modification <50%) |  | 5.30 to 6.30 | C (10%≤modification <50%) | 6.00 to 7.00 |
